{"source": "patent US20220142983A1", "about": "“METHODS OF TREATING CANCER WITH FARNESYLTRANSFERASE INHIBITORS” (Kura Oncology, Inc., priority 2019, published 2022)", "format_in_all_cases": "in vivo, human", "key": {"[1]": {"tested_on": "relapsed/refractory CMML patients", "experiment": "Tipifarnib clinical study in relapsed/refractory CMML patients", "method": "Clinical studies with tipifarnib were performed in relapsed/refractory CMML patients (N=20) receiving tipifarnib as a single agent orally, twice a day (bid) for 7 days in alternating weeks (Days 1-7 and 15-21) in 28 day cycles. Eligible patients received tipifarnib administered at a starting dose of 1200 mg or 900 mg, orally with food, bid for 7 days in alternating weeks (Days 1-7 and 15-21) in 28 day cycles. Stepwise 300 mg dose reductions to control treatment-related, treatment-emergent toxicities were allowed.\nInclusion Criteria for this clinical study include: (a) diagnosis of CMML as defined by the World Health Organization (WHO) criteria; (b) Eastern Cooperative Oncology Group (ECOG) performance status 0 or 1; (c) subject is willing and able to comply with scheduled visits, treatment plans, laboratory tests and other procedures (including bone marrow assessments); (d) at least 1 week since the last systemic therapy regimen prior to Cycle 1 Day 1, subjects on a stable dose of hydroxyurea for at least 2 weeks prior to Cycle 1 Day 1 may continue on hydroxyurea until Cycle 1 Day 7, and subjects must have recovered to NCI CTCAE v. […] Both females and male subjects with female partners of child-bearing potential must agree to use an adequate method of contraception for 2 weeks prior to screening, during, and at least 4 weeks after last dose of study medication. Female subjects must have a negative serum or urine pregnancy test within 72 hours prior to start of study medication. Not breast feeding at any time during the study; and (h) written and voluntary informed consent understood, signed and dated. […]"}, "[2]": {"tested_on": "relapsed and refractory AML patients", "experiment": "Tipifarnib clinical study in relapsed and refractory AML patients", "method": "(§1) Clinical studies with tipifarnib were performed in newly diagnosed elderly patients with poor risk AML or relapsed and refractory AML. In these studies, patient selection was not based on genetic markers. Anecdotal evidence of tipifarnib single agent activity was reported."}, "[3]": {"tested_on": "newly diagnosed elderly patients with poor risk AML", "experiment": "Tipifarnib clinical study in newly diagnosed elderly patients with poor risk AML", "conditions": "for PFS: N=34", "method": "as §1\nPatient subset—available AML marrow samples with NRAS WT or unknown, N=27 (NCBI GEO, GSE8970).\nSince achievement of CR is the main driver of clinical benefit in AML, additional screenings were conducted to differentiate the CR responses vs HI/SD responses in the higher RHOE expression levels subset of FIG. 3A (replicated in FIG. 4A).\nAnother screening conducted to differentiate the CR responses and HI/SD responses from PD responses was based on both RHOE expression levels and RHOA expression levels of the subjects shown in FIG. 3A (replicated in FIG. 5). RHOA mRNA expression data was generated by RNASeq and expressed as RNA Seq V2 RSEM.\nThe mRNA expression profiling data from the clinical study with newly diagnosed elderly patients with poor risk AML were also analyzed for CXCR3, CXCL12, and RHOE. Patient subset—available AML marrow samples with NRAS WT, unknown, N-12, N12/N13, or N61 (1,2); N=34. […] Probe 207681 used for CXCR3 in the GPL96 Affimetrix microarray. The combination of the CXCR3 expression levels and CXC12 expression levels of newly-diagnosed elderly, frail AML patients, also correlated with treatment response. In particular, the product (multiplication) of the CXCR3 (“receptor”) expression levels and the CXCL12 (“ligand”) expression levels further differentiated the CR and HI/SD responses from the PD responses in the AML patients treated with tipifarnib. […] PFS in the high CXCL12×CXCR3 product subset was 433 days vs. 64 days in the low expressing product subset (HR=0.24, p=0.005, N=34)."}, "[4]": {"conditions": "higher pre-treatment CXCL12xCXCR3 product levels (20,000 or more) (FIG. 7)"}, "[5]": {"conditions": "lower RHOE expression levels (FIG. 3A)"}, "[6]": {"conditions": "lower pre-treatment CXCL12xCXCR3 product levels (less than 20,000) (FIG. 7)"}}, "data": [{"smiles": "Cn1cncc1[C@@](N)(c1ccc(Cl)cc1)c1ccc2c(c1)c(-c1cccc(Cl)c1)cc(=O)n2C", "note": "[tipifarnib]", "values": [{"measurement": "median Time to Treatment Failure (TTF)", "setting": "[1]; tertiale 1 (lowest PRICKLE2 expression), tipifarnib single agent (FIG. 11)", "result": 99, "unit": "days"}, {"measurement": "median Time to Treatment Failure (TTF)", "setting": "[1]; tertiale 2 of PRICKLE2 expression, tipifarnib single agent (FIG. 11)", "result": 84, "unit": "days"}, {"measurement": "median Time to Treatment Failure (TTF)", "setting": "[1]; tertiale 3 (highest PRICKLE2 expression), tipifarnib single agent, p=0.047 vs tertiale 1 (FIG. 11)", "result": 288, "unit": "days"}, {"measurement": "mPFS percentage", "setting": "[2]; CXCR3 expression levels in the first tertiale, N=58 (FIG. 10)", "result": 54, "unit": "days"}, {"measurement": "mPFS percentage", "setting": "[2]; CXCR3 expression levels in the second tertiale, N=58 (FIG. 10)", "result": 75, "unit": "days"}, {"measurement": "mPFS percentage", "setting": "[2]; CXCR3 expression levels in the third tertiale, N=58, p=0.009 (FIG. 10)", "result": 182, "unit": "days"}, {"measurement": "median progression free survival", "setting": "[3]; CXCR3 expression levels in the first quartile (FIG. 9)", "result": "about 10 days"}, {"measurement": "median progression free survival", "setting": "[3]; CXCR3 expression levels in the fourth quartile, p=0.0004 (FIG. 9)", "result": 406, "unit": "days"}, {"measurement": "median progression free survival", "setting": "[3]; CXCR3 expression levels in the second quartile (FIG. 9)", "result": "about 70 days"}, {"measurement": "median progression free survival", "setting": "[3]; CXCR3 expression levels in the third quartile (FIG. 9)", "result": 248, "unit": "days"}, {"measurement": "median progression free survival", "setting": "[3]; RND3 expression levels greater than or equal to 144 (higher RHOE) (FIG. 3B)", "result": 8.2, "unit": "months"}, {"measurement": "median progression free survival", "setting": "[3]; RND3 expression levels less than 144 (lower RHOE) (FIG. 3B)", "result": 2.2, "unit": "months"}, {"measurement": "PFS", "setting": "[3]; high CXCL12xCXCR3 product subset", "result": 433, "unit": "days"}, {"measurement": "PD responses", "setting": "[3]; higher RHOE expression levels (FIG. 3A)", "result": "1 out of 14"}, {"measurement": "CR responses", "setting": "[3]; [4]", "result": "8 out of 14 subjects"}, {"measurement": "PD responses", "setting": "[3]; [4]", "result": "0 out of 14"}, {"measurement": "SD/HI responses", "setting": "[3]; [4]", "result": "6 out of 14 subjects"}, {"measurement": "PFS", "setting": "[3]; low expressing CXCL12xCXCR3 product subset", "result": 64, "unit": "days"}, {"measurement": "CR responses", "setting": "[3]; [5]", "result": "0 out of 13 subjects"}, {"measurement": "PD responses", "setting": "[3]; [5]", "result": "7 out of 13 subjects"}, {"measurement": "CR responses", "setting": "[3]; [6]", "result": "1 out of 20 subjects"}, {"measurement": "PD responses", "setting": "[3]; [6]", "result": "13 out of 20 subjects"}, {"measurement": "SD/HI responses", "setting": "[3]; [6]", "result": "6 out of 20 subjects"}, {"measurement": "HR (PFS, high vs low CXCL12xCXCR3 product subset)", "setting": "[3]; p=0.005, N=34", "result": 0.24}, {"measurement": "CR responses", "setting": "[3]; treatment naive elderly, frail AML patients with higher RHOE expression levels (FIG. 3A)", "result": "8 out of 14 subjects"}]}]}
